A short description of one data set: cells. The note with it: Homo sapiens, CRL8155.
Data set [1] addresses T1, Calmodulin-domain protein kinase 1 (Toxoplasma gondii, UniProt Q9BJF5).
T1 sequence (Q9BJF5 whole entry): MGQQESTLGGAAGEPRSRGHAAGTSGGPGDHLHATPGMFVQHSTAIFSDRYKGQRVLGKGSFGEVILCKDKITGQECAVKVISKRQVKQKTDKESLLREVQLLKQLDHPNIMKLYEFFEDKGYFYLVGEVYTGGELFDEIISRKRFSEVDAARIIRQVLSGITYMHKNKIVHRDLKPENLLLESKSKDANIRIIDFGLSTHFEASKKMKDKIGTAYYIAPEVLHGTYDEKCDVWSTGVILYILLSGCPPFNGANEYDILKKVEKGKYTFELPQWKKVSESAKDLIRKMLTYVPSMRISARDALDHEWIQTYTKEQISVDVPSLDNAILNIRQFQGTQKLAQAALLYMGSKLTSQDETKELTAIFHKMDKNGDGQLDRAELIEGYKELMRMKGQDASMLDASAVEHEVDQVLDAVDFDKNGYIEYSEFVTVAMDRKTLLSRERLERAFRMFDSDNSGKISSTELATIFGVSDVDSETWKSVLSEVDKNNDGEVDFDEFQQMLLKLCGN

A short description of data set [2]: in vivo. As to conditions: mouse, plasma, po, 10 mg/kg.
Data set [3] is described as follows: in vivo. The note with it: mouse, po, 10 mg/kg.

This is an account of results in ChEMBL document CHEMBL3108667, “Potent and selective inhibitors of CDPK1 from T. gondii and C. parvum based on a 5-aminopyrazole-4-carboxamide scaffold” (ACS Med Chem Lett, 2014).

For orientation: EC50 means the concentration giving half of the maximal effect. Consider `CCOc1ccc2cc(-c3nn(C(C)(C)C)c(N)c3C(N)=O)ccc2c1`, for which, in “cells”, the EC50 was greater than 30 µM.

Turning to `NC(=O)c1c(-c2ccc3ccccc3c2)nn(CC(F)(F)F)c1N`, the EC50 in “cells” is greater than 30 µM.

In the data set “cells”, `CC(C)(C)Cn1nc(-c2ccc3ccccc3c2)c(C(N)=O)c1N` registered an EC50 greater than 40 µM.

`COc1ccc2cc(-c3nn(C(C)(C)C)c(N)c3C(N)=O)ccc2c1` yielded an EC50 in “cells” greater than 40 µM.

The IC50 is the point on the concentration scale where inhibition reaches its midpoint. On to `CC(C)(C)n1nc(-c2ccc3c(N)n[nH]c3c2)c(C(N)=O)c1N`, for which the IC50 in data set [1] is 0.04 µM. This counts as double-digit nanomolar.

In turn, `CC(C)(C)n1nc(-c2cnc3ccccc3c2)c(C(N)=O)c1N` registered an EC50 in “cells” greater than 40 µM.

What is called AUC is the area under the concentration-time curve, a measure of exposure. A lower AUC goes with less exposure. What is called Cmax is the highest concentration seen after dosing. In the case of `CCOc1ccc2cc(-c3nn(C(C)(C)C)c(N)c3C(N)=O)cnc2c1`, the AUC in “in vivo [2]” is 41.7 µM·h. Moreover, in “cells”, the concentration for a half-maximal effect (EC50) was greater than 30 µM. The Cmax at 1 h in the data set “in vivo [3]” turned out to be 10 µM.
